Results taken from US10442807B2, “Aryl substituted bicyclic compounds as herbicides” (FMC Corporation, priority 2015, dated 2019).

Key:
Format in all cases: in vivo
[1] = tested on: wheat (Triticum aestivum); test: Test A postemergence application, visual injury rating; details: approx. 10 d, 0 = no effect, 100 = complete control
Text: (§1) Seeds of plant species selected from barnyardgrass (Echinochloa crus-galli), kochia (Kochia scoparia), ragweed (common ragweed, Ambrosia elation), ryegrass, Italian (Italian ryegrass, Lolium multiflorum), foxtail, giant (giant foxtail, Setaria faberii), and pigweed (Amaranthus retroflexus), were planted into a blend of loam soil and sand and treated preemergence with a directed soil spray using test chemicals formulated in a non-phytotoxic solvent mixture which included a surfactant. At the same time, plants selected from these weed species and also blackgrass (Alopecurus myosuroides), galium (catchweed bedstraw, Galium aparine), wheat (Triticum aestivum), and corn (Zea mays) were planted in pots containing the same blend of loam soil and sand and treated with postemergence applications of test chemicals formulated in the same manner. Plants ranged in height from 2 to 10 cm and were in the one- to two-leaf stage for the postemergence treatment. Treated plants and untreated controls were maintained in a greenhouse for approximately 10 d, after which time all treated plants were compared to untreated controls and visually evaluated for injury. Plant response ratings, summarized in Table A, are based on a 0 to 100 scale where 0 is no effect and 100 is complete control. A dash (-) response means no test result.

kochia (Kochia scoparia) [2] = test: as above; details: approx. 10 d, 0 = no effect, 100 = complete control
Text: as §1

[3] = tested on: ragweed (common ragweed, Ambrosia elation); test: as above; details: approx. 10 d, 0 = no effect, 100 = complete control
Text: as §1

[4] = tested on: ryegrass, Italian (Italian ryegrass, Lolium multiflorum); test: as above; details: approx. 10 d, 0 = no effect, 100 = complete control
Text: as §1

[5] = tested on: blackgrass (Alopecurus myosuroides); test: as above; details: approx. 10 d, 0 = no effect, 100 = complete control
Text: as §1

[6] = tested on: barnyardgrass (Echinochloa crus-galli); test: as above; details: approx. 10 d, 0 = no effect, 100 = complete control
Text: as §1

[7] = tested on: pigweed (Amaranthus retroflexus); test: as above; details: approx. 10 d, 0 = no effect, 100 = complete control
Text: as §1

[8] = tested on: foxtail, giant (giant foxtail, Setaria faberii); test: as above; details: approx. 10 d, 0 = no effect, 100 = complete control
Text: as §1

corn (Zea mays) = test: as above; details: approx. 10 d, 0 = no effect, 100 = complete control
Text: as §1

[9] = tested on: galium (catchweed bedstraw, Galium aparine); test: as above; details: approx. 10 d, 0 = no effect, 100 = complete control
Text: as §1

kochia (Kochia scoparia) [10] = test: Test A preemergence, directed soil spray, visual injury rating; details: approx. 10 d, 0 = no effect, 100 = complete control
Text: as §1

[11] = tested on: ragweed (common ragweed, Ambrosia elation); test: as above; details: approx. 10 d, 0 = no effect, 100 = complete control
Text: as §1

[12] = tested on: ryegrass, Italian (Italian ryegrass, Lolium multiflorum); test: as above; details: approx. 10 d, 0 = no effect, 100 = complete control
Text: as §1

[13] = tested on: barnyardgrass (Echinochloa crus-galli); test: as above; details: approx. 10 d, 0 = no effect, 100 = complete control
Text: as §1

[14] = tested on: pigweed (Amaranthus retroflexus); test: as above; details: approx. 10 d, 0 = no effect, 100 = complete control
Text: as §1

[15] = tested on: foxtail, giant (giant foxtail, Setaria faberii); test: as above; details: approx. 10 d, 0 = no effect, 100 = complete control
Text: as §1

rice (Oryza sativa) = test: Test B flooded paddy test, visual plant response rating; details: 250 g ai/ha; applied to paddy water at 2-leaf stage; rated after 13 to 15 days; scale 0 to 100, 0 is no effect, 100 is complete control
Text: (§2) At time of treatment, test pots were flooded to 3 cm above the soil surface, treated by application of test compounds directly to the paddy water, and then maintained at that water depth for the duration of the test. Treated plants and controls were maintained in a greenhouse for 13 to 15 days, after which time all species were compared to controls and visually evaluated. Plant response ratings, summarized in Table B, are based on a scale of 0 to 100 where 0 is no effect and 100 is complete control. A dash (-) response means no test result.

[16] = tested on: barnyardgrass (Echinochloa crus-galli); test: as above; details: 250 g ai/ha; applied to paddy water at 2-leaf stage; rated after 13 to 15 days; scale 0 to 100, 0 is no effect, 100 is complete control
Text: as §2

[17] = tested on: ducksalad (Heteranthera limosa); test: as above; details: 250 g ai/ha; applied to paddy water at 2-leaf stage; rated after 13 to 15 days; scale 0 to 100, 0 is no effect, 100 is complete control
Text: as §2

[18] = tested on: sedge, umbrella (small-flower umbrella sedge, Cyperus difformis); test: as above; details: 250 g ai/ha; applied to paddy water at 2-leaf stage; rated after 13 to 15 days; scale 0 to 100, 0 is no effect, 100 is complete control
Text: as §2

| Compound | Wheat plant response rating (0 to 100 scale) ([1]; 125 g ai/ha) | Wheat plant response rating (0 to 100 scale) ([1]; 500 g ai/ha) | Kochia plant response rating (0 to 100 scale) (kochia (Kochia scoparia) [2]; 125 g ai/ha) | Kochia plant response rating (0 to 100 scale) (kochia (Kochia scoparia) [2]; 500 g ai/ha) | Ragweed plant response rating (0 to 100 scale) ([3]; 125 g ai/ha) | Ragweed plant response rating (0 to 100 scale) ([3]; 500 g ai/ha) | Ryegrass, Italian plant response rating (0 to 100 scale) ([4]; 125 g ai/ha) | Ryegrass, Italian plant response rating (0 to 100 scale) ([4]; 500 g ai/ha) | Blackgrass plant response rating (0 to 100 scale) ([5]; 125 g ai/ha) | Blackgrass plant response rating (0 to 100 scale) ([5]; 500 g ai/ha) | Barnyardgrass plant response rating (0 to 100 scale) ([6]; 125 g ai/ha) | Barnyardgrass plant response rating (0 to 100 scale) ([6]; 500 g ai/ha) | Pigweed plant response rating (0 to 100 scale) ([7]; 125 g ai/ha) | Pigweed plant response rating (0 to 100 scale) ([7]; 500 g ai/ha) | Foxtail, Giant plant response rating (0 to 100 scale) ([8]; 125 g ai/ha) | Foxtail, Giant plant response rating (0 to 100 scale) ([8]; 500 g ai/ha) | Corn plant response rating (0 to 100 scale) (corn (Zea mays); 125 g ai/ha) | Corn plant response rating (0 to 100 scale) (corn (Zea mays); 500 g ai/ha) | Galium plant response rating (0 to 100 scale) ([9]; 125 g ai/ha) | Galium plant response rating (0 to 100 scale) ([9]; 500 g ai/ha) | other results |
| --- | --- | --- | --- | --- | --- | --- | --- | --- | --- | --- | --- | --- | --- | --- | --- | --- | --- | --- | --- | --- | --- |
| CCc1ccc(C2Cn3c(C)nnc3C2C(=O)Nc2cccc(F)c2C)cc1 (stereo not drawn) [Compound 9] | 0 | 0 | 0 | 0 | 0 | 0 | 0 | 20 | 20 | 70 | 30 | 70 | 0 | 0 | 0 | 50 | 0 | 0 | 0 | 20 | Kochia plant response rating (0 to 100 scale) (kochia (Kochia scoparia) [10]; 125 g ai/ha): 0; Kochia plant response rating (0 to 100 scale) (kochia (Kochia scoparia) [10]; 500 g ai/ha): 0; Ragweed plant response rating (0 to 100 scale) ([11]; 125 g ai/ha): 0; Ragweed plant response rating (0 to 100 scale) ([11]; 500 g ai/ha): 0; Ryegrass, Italian plant response rating (0 to 100 scale) ([12]; 125 g ai/ha): 0; Ryegrass, Italian plant response rating (0 to 100 scale) ([12]; 500 g ai/ha): 0; Barnyardgrass plant response rating (0 to 100 scale) ([13]; 125 g ai/ha): 40; Barnyardgrass plant response rating (0 to 100 scale) ([13]; 500 g ai/ha): 70; Pigweed plant response rating (0 to 100 scale) ([14]; 125 g ai/ha): 0; Pigweed plant response rating (0 to 100 scale) ([14]; 500 g ai/ha): 0; Foxtail, Giant plant response rating (0 to 100 scale) ([15]; 125 g ai/ha): 60; Foxtail, Giant plant response rating (0 to 100 scale) ([15]; 500 g ai/ha): 90; Plant response rating, Flood, Rice (rice (Oryza sativa)): 15; Plant response rating, Flood, Barnyardgrass [16]: 20; Plant response rating, Flood, Ducksalad [17]: 75; Plant response rating, Flood, Sedge, Umbrella [18]: 0 |
| Cc1ccc(C2Cn3c(C)nnc3C2C(=O)Nc2cccc(F)c2C)cc1C (stereo not drawn) [Compound 10] | 30 | 30 | 0 | 30 | 0 | 20 | 0 | 30 | 0 | 70 | 50 | 90 | 0 | 0 | 30 | 80 | 20 | 40 | 0 | 50 | Kochia plant response rating (0 to 100 scale) (kochia (Kochia scoparia) [10]; 125 g ai/ha): 0; Kochia plant response rating (0 to 100 scale) (kochia (Kochia scoparia) [10]; 500 g ai/ha): 50; Ragweed plant response rating (0 to 100 scale) ([11]; 125 g ai/ha): 0; Ragweed plant response rating (0 to 100 scale) ([11]; 500 g ai/ha): 0; Ryegrass, Italian plant response rating (0 to 100 scale) ([12]; 125 g ai/ha): 0; Ryegrass, Italian plant response rating (0 to 100 scale) ([12]; 500 g ai/ha): 70; Barnyardgrass plant response rating (0 to 100 scale) ([13]; 125 g ai/ha): 50; Barnyardgrass plant response rating (0 to 100 scale) ([13]; 500 g ai/ha): 90; Pigweed plant response rating (0 to 100 scale) ([14]; 125 g ai/ha): 0; Pigweed plant response rating (0 to 100 scale) ([14]; 500 g ai/ha): 20; Foxtail, Giant plant response rating (0 to 100 scale) ([15]; 125 g ai/ha): 80; Foxtail, Giant plant response rating (0 to 100 scale) ([15]; 500 g ai/ha): 90; Plant response rating, Flood, Rice (rice (Oryza sativa)): 0; Plant response rating, Flood, Barnyardgrass [16]: 20; Plant response rating, Flood, Ducksalad [17]: 45; Plant response rating, Flood, Sedge, Umbrella [18]: 0 |
| CCc1ccc(C2Cn3cnnc3C2C(=O)Nc2cccc(F)c2F)cc1 (stereo not drawn) [Compound 11] | 0 | 20 | 40 | 50 | 0 | 30 | 0 | 50 | 0 | 20 | 70 | 80 | 0 | 0 | 40 | 70 | 0 | 30 | 20 | 50 | Kochia plant response rating (0 to 100 scale) (kochia (Kochia scoparia) [10]; 125 g ai/ha): 60; Kochia plant response rating (0 to 100 scale) (kochia (Kochia scoparia) [10]; 500 g ai/ha): 70; Ragweed plant response rating (0 to 100 scale) ([11]; 125 g ai/ha): 0; Ragweed plant response rating (0 to 100 scale) ([11]; 500 g ai/ha): 40; Ryegrass, Italian plant response rating (0 to 100 scale) ([12]; 125 g ai/ha): 0; Ryegrass, Italian plant response rating (0 to 100 scale) ([12]; 500 g ai/ha): 30; Barnyardgrass plant response rating (0 to 100 scale) ([13]; 125 g ai/ha): 70; Barnyardgrass plant response rating (0 to 100 scale) ([13]; 500 g ai/ha): 90; Pigweed plant response rating (0 to 100 scale) ([14]; 125 g ai/ha): 30; Pigweed plant response rating (0 to 100 scale) ([14]; 500 g ai/ha): 30; Foxtail, Giant plant response rating (0 to 100 scale) ([15]; 125 g ai/ha): 80; Foxtail, Giant plant response rating (0 to 100 scale) ([15]; 500 g ai/ha): 90; Plant response rating, Flood, Rice (rice (Oryza sativa)): 0; Plant response rating, Flood, Barnyardgrass [16]: 0; Plant response rating, Flood, Ducksalad [17]: 95; Plant response rating, Flood, Sedge, Umbrella [18]: 70 |
| O=C(Nc1cccc(F)c1F)C1c2nncn2CC1c1ccc(C(F)(F)F)cc1 (stereo not drawn) [Compound 12] | 0 | 40 | 20 | 60 | 0 | 50 | 0 | 60 | 0 | 60 | 30 | 90 | 0 | 70 | 30 | 90 | 0 | 60 | 30 | 70 | Kochia plant response rating (0 to 100 scale) (kochia (Kochia scoparia) [10]; 125 g ai/ha): 30; Kochia plant response rating (0 to 100 scale) (kochia (Kochia scoparia) [10]; 500 g ai/ha): 80; Ragweed plant response rating (0 to 100 scale) ([11]; 125 g ai/ha): 0; Ragweed plant response rating (0 to 100 scale) ([11]; 500 g ai/ha): 50; Ryegrass, Italian plant response rating (0 to 100 scale) ([12]; 125 g ai/ha): 40; Ryegrass, Italian plant response rating (0 to 100 scale) ([12]; 500 g ai/ha): 60; Barnyardgrass plant response rating (0 to 100 scale) ([13]; 125 g ai/ha): 20; Barnyardgrass plant response rating (0 to 100 scale) ([13]; 500 g ai/ha): 80; Pigweed plant response rating (0 to 100 scale) ([14]; 125 g ai/ha): 30; Pigweed plant response rating (0 to 100 scale) ([14]; 500 g ai/ha): 80; Foxtail, Giant plant response rating (0 to 100 scale) ([15]; 125 g ai/ha): 90; Foxtail, Giant plant response rating (0 to 100 scale) ([15]; 500 g ai/ha): 90; Plant response rating, Flood, Rice (rice (Oryza sativa)): 0; Plant response rating, Flood, Barnyardgrass [16]: 0; Plant response rating, Flood, Ducksalad [17]: 75; Plant response rating, Flood, Sedge, Umbrella [18]: 0 |
